Assay results: the supplement of paper PMC10307832

What follows are cell lines tested with O=c1ncccn1[C@@H]1O[C@H](CO)[C@@H](O)[C@H]1O [Zebularine] + O=C(c1cc(Cc2n[nH]c(=O)c3ccccc23)ccc1F)N1CCN(C(=O)C2CC2)CC1 [Olaparib] (partner 8 µM) (assay: relative viability (nuclei count vs DMSO), 5 days (fraction); higher = more cells survive). Conditions: first compound 100 µM.
Method in brief: (§1)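 Lung cancer cell lines were pin-tool dosed in 1536-well plates on the day after seeding, with either a lone drug or a fixed anchor-drug dose plus five library-drug doses (not always all listed) in √10 steps. Nuclei were counted on 4× images after 5 days. Relative viability is the ratio of treated-well to vehicle-well nuclei counts, with each value a median of duplicate plates.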
In the case of NCI-H23, the relative viability is reported as 0.258. NCI-H1299 gave a relative viability of 0.447. NCI-H647 showed a relative viability of 0.165. Work on CAL-12T yielded a relative viability of 0.273. With NCI-H1651 the relative viability was 0.166. With EPLC-272H the relative viability was 0.41. For NCI-H2228, the relative viability was 0.236. NCI-H1792 was tested, and the relative viability was 0.182. In the case of NCI-H1355, the relative viability is reported as 0.272. NCI-H3122 gave a relative viability of 0.369. Cell Line NCI-H1437 has a relative viability of 0.482. Work on NCI-H1755 yielded a relative viability of 0.472. Work on NCI-H2023 yielded a relative viability of 0.244. In the case of HCC-15, the relative viability is reported as 0.307. For NCI-H1793, the relative viability was 0.27. PC-14 showed a relative viability of 0.122. EKVX was tested, and the relative viability was 0.664. With LC-2-ad the relative viability was 0.254.

What follows are cell lines tested with O=c1ncccn1[C@@H]1O[C@H](CO)[C@@H](O)[C@H]1O [Zebularine] + CC(=O)c1c(C)c2cnc(Nc3ccc(N4CCNCC4)cn3)nc2n(C2CCCC2)c1=O [Palbociclib] (partner 0.5 µM) in the same assay as above. Conditions: first compound 1 µM.
Method in brief: as §1
NCI-H2342 gave a relative viability of 0.508. Work on NCI-H727 yielded a relative viability of 0.652. Work on NCI-H1650 yielded a relative viability of 0.349. In the case of NCI-H1993, the relative viability is reported as 0.726. With SW 1573 the relative viability was 0.451. Work on NCI-H838 yielded a relative viability of 0.222. For LCLC-103H, the relative viability was 0.49. Cell Line NCI-H520 has a relative viability of 0.213. NCI-H2126 was tested, and the relative viability was 0.363. With EMC-BAC-2 the relative viability was 0.545. NCI-H2085 showed a relative viability of 0.451. HCC-366 showed a relative viability of 0.367. Work on NCI-H1666 yielded a relative viability of 0.629. Work on LK-2 yielded a relative viability of 0.874. NCI-H2087 was tested, and the relative viability was 0.275. Work on NCI-H1648 yielded a relative viability of 0.316. With SK-MES-1 the relative viability was 0.346. H3255 was tested, and the relative viability was 0.3. With COR-L23 the relative viability was 0.314. Cell Line COR-L 105 has a relative viability of 0.515. Work on LOU-NH91 yielded a relative viability of 0.54. ChaGo-K-1 was tested, and the relative viability was 0.919. In the case of NCI-H2170, the relative viability is reported as 0.415. For NCI-H2405, the relative viability was 0.524. HOP-62 was tested, and the relative viability was 0.496. In the case of HCC-44, the relative viability is reported as 0.945. Cell Line NCI-H522 has a relative viability of 0.923. LU99A showed a relative viability of 0.483. Cell Line BEN has a relative viability of 0.451. Work on HARA yielded a relative viability of 0.242. For SW 900, the relative viability was 0.503. HCC-78 was tested, and the relative viability was 0.577. NCI-H322M was tested, and the relative viability was 0.467. For LCLC-97TM1, the relative viability was 0.2. For NCI-H2009, the relative viability was 0.249. Work on A-427 yielded a relative viability of 0.581. Cell Line NCI-H441 has a relative viability of 0.235. NCI-H661 gave a relative viability of 0.406. NCI-H1734 was tested, and the relative viability was 0.408. NCI-H460 was tested, and the relative viability was 0.201. Work on NCI-H2347 yielded a relative viability of 0.471. With SK-LU-1 the relative viability was 0.417. NCI-H1395 was tested, and the relative viability was 0.664. In the case of 201T, the relative viability is reported as 0.406. For NCI-H1915, the relative viability was 0.523. With HCC-827 the relative viability was 0.555. LXF-289 showed a relative viability of 0.641. NCI-H23 gave a relative viability of 0.482. Cell Line NCI-H647 has a relative viability of 0.334. CAL-12T gave a relative viability of 0.474. NCI-H1651 gave a relative viability of 0.525. For EPLC-272H, the relative viability was 0.375. NCI-H2228 gave a relative viability of 0.861. NCI-H1792 was tested, and the relative viability was 0.639. Work on NCI-H1355 yielded a relative viability of 0.402. NCI-H3122 gave a relative viability of 0.204. For NCI-H1437, the relative viability was 0.308. With NCI-H1755 the relative viability was 0.496. NCI-H2023 was tested, and the relative viability was 0.361. HCC-15 showed a relative viability of 0.887. NCI-H1793 showed a relative viability of 0.364. With PC-14 the relative viability was 0.627. With EKVX the relative viability was 0.692. LC-2-ad was tested, and the relative viability was 0.496.

Same assay, conditions: first compound 3.162 µM
For NCI-H2342, the relative viability was 0.498. NCI-H727 was tested, and the relative viability was 0.729. NCI-H1650 gave a relative viability of 0.359. NCI-H1993 showed a relative viability of 0.704. In the case of SW 1573, the relative viability is reported as 0.435. Cell Line NCI-H838 has a relative viability of 0.257. LCLC-103H gave a relative viability of 0.45. NCI-H520 showed a relative viability of 0.217. NCI-H2126 gave a relative viability of 0.342. EMC-BAC-2 showed a relative viability of 0.507. NCI-H2085 gave a relative viability of 0.47. With HCC-366 the relative viability was 0.387. NCI-H1666 gave a relative viability of 0.642. LK-2 was tested, and the relative viability was 0.797. Cell Line NCI-H2087 has a relative viability of 0.207. Cell Line NCI-H1648 has a relative viability of 0.226. For SK-MES-1, the relative viability was 0.359. With H3255 the relative viability was 0.288. Cell Line COR-L23 has a relative viability of 0.286. Work on COR-L 105 yielded a relative viability of 0.373. Cell Line LOU-NH91 has a relative viability of 0.524. Cell Line ChaGo-K-1 has a relative viability of 0.737. With NCI-H2170 the relative viability was 0.351. In the case of NCI-H2405, the relative viability is reported as 0.533. Cell Line HOP-62 has a relative viability of 0.437. HCC-44 showed a relative viability of 0.998. For NCI-H522, the relative viability was 0.942. Cell Line LU99A has a relative viability of 0.433. With BEN the relative viability was 0.473. HARA was tested, and the relative viability was 0.279. SW 900 gave a relative viability of 0.484. HCC-78 was tested, and the relative viability was 0.465. NCI-H322M was tested, and the relative viability was 0.486. LCLC-97TM1 gave a relative viability of 0.199. For NCI-H2009, the relative viability was 0.229. For A-427, the relative viability was 0.542. Work on NCI-H441 yielded a relative viability of 0.21. Work on NCI-H661 yielded a relative viability of 0.4. Cell Line NCI-H1734 has a relative viability of 0.334. NCI-H460 was tested, and the relative viability was 0.136. In the case of NCI-H2347, the relative viability is reported as 0.411. SK-LU-1 showed a relative viability of 0.408. NCI-H1395 showed a relative viability of 0.659. Work on 201T yielded a relative viability of 0.355. In the case of NCI-H1915, the relative viability is reported as 0.525. HCC-827 gave a relative viability of 0.551. Work on LXF-289 yielded a relative viability of 0.66. Cell Line NCI-H23 has a relative viability of 0.473. In the case of NCI-H647, the relative viability is reported as 0.34. For CAL-12T, the relative viability was 0.423. With NCI-H1651 the relative viability was 0.491. NCI-H2228 gave a relative viability of 0.637. NCI-H1792 was tested, and the relative viability was 0.732. For NCI-H1355, the relative viability was 0.371. Work on NCI-H3122 yielded a relative viability of 0.185. Cell Line NCI-H1437 has a relative viability of 0.33. Work on NCI-H1755 yielded a relative viability of 0.455. In the case of NCI-H2023, the relative viability is reported as 0.375. HCC-15 gave a relative viability of 0.757. Cell Line NCI-H1793 has a relative viability of 0.309. In the case of PC-14, the relative viability is reported as 0.417. EKVX gave a relative viability of 0.398. LC-2-ad showed a relative viability of 0.507.

Same assay, conditions: first compound 10 µM
For NCI-H2342, the relative viability was 0.5. NCI-H727 gave a relative viability of 0.69. NCI-H1650 showed a relative viability of 0.311. NCI-H1993 showed a relative viability of 0.615. In the case of NCI-H838, the relative viability is reported as 0.223. LCLC-103H gave a relative viability of 0.482. For NCI-H520, the relative viability was 0.202. With NCI-H2126 the relative viability was 0.386. In the case of EMC-BAC-2, the relative viability is reported as 0.431. With NCI-H2085 the relative viability was 0.509. HCC-366 was tested, and the relative viability was 0.246. NCI-H1666 was tested, and the relative viability was 0.58. LK-2 showed a relative viability of 0.424. For NCI-H2087, the relative viability was 0.243. Work on NCI-H1648 yielded a relative viability of 0.301. With SK-MES-1 the relative viability was 0.341. In the case of H3255, the relative viability is reported as 0.336. Work on COR-L23 yielded a relative viability of 0.176. COR-L 105 showed a relative viability of 0.416. LOU-NH91 gave a relative viability of 0.518.
